{
  "source": "patent US11844794B2",
  "about": "“Pharmaceutical compositions” (ADEPTIO PHARMACEUTICALS LIMITED, priority 2017, dated 2023)",
  "key": {"[1]": {"assay": "equilibrium aqueous solubility by HPLC", "assay_type": "physicochemical", "conditions": "water, thermodynamic from solid", "description": "The aqueous solubilities of salts were measured by an equilibrium method in which an amount of the salt was weighed into a 2 ml vial equipped with a magnetic stirrer bar and water added. In cases where complete dissolution was observed, more material was added until the sample was exhausted. The slurry was then stirred for seven days before isolating the solids by centrifuge-filtration. The solids were analysed by XRPD and the filtrates were analysed by HPLC to determine the amount of (+)-alpha-dihydrotetrabenazine salt in solution. The solubilities were calculated against a calibration curve established for a (+)-alpha-dihydrotetrabenazine sample of known concentration."}, "[2]": {"assay": "pharmacokinetics after oral administration to male Beagle dogs", "assay_type": "in vivo, Beagle dog", "description": "Doses were administered orally, via gavage, at a dose volume of 2.00 mL/kg yielding the target dose level of 1.50 mg/kg. Following dosing, 10 mL of tap water was flushed down the gavage to ensure the entire dose was dispensed. Following dosing over four sessions each with one of the test materials, serial whole blood samples (circa. 1.3 mL) were collected from a jugular vein then placed into K2 EDTA treated tubes pre-dose and then 0.25, 0.50, 1, 2, 3, 4, 6, 12 and 24 hours post dose. Blood samples were placed immediately on a cool-block before being centrifuged within 15 minutes at 3,000×g, 10 minutes, 4° C. and resultant plasma drawn off. […] Doses were administered orally, via gavage, at a dose volume of 2.00 mL/kg yielding the target dose level of 1.50 mg/kg. Following dosing, 10 mL of tap water was flushed down the gavage to ensure the entire dose was dispensed. Following dosing over four sessions each with one of the test materials, serial whole blood samples (circa. 1.3 mL) were collected from a jugular vein then placed into K2 EDTA treated tubes pre-dose and then 0.25, 0.50, 1, 2, 3, 4, 6, 12 and 24 hours post dose. Blood samples were placed immediately on a cool-block before being centrifuged within 15 minutes at 3,000×g, 10 minutes, 4° C. and resultant plasma drawn off."}, "[3]": {"assay": "solid form stability in slurry / polymorphism by XRPD", "assay_type": "physicochemical"}, "[4]": {"assay": "moisture-sorption analysis", "assay_type": "physicochemical", "conditions": "for moisture uptake: 25° C.", "description": "Moisture-sorption analysis was carried out using a Hiden IGA Sorp moisture-sorption analyser. […] The sample was then subjected to an isothermal (at 25° C.) adsorption scan from 40 to 90% relative humidity in steps of 10%. The sample was allowed to equilibrate to an asymptotic weight at each point for a maximum of four hours. […] An adsorption scan was then performed from 0 to 40% relative humidity inn steps of 10%. The sample was dried for two hours at 60° C. and 0% relative humidity, and the resulting solid was analysed by XRPD."}, "[5]": {"conditions": "male, Beagle (HsdRcc:DOBE), dog, plasma, po, 1.5 mg/kg, Plasma concentration of (+)-α-dihydrotetrabenazine, Male 1, oral 1.50 mg/kg (freebase equivalent)"}, "[6]": {"conditions": "male, Beagle (HsdRcc:DOBE), dog, plasma, po, 1.5 mg/kg, Plasma concentration of (+)-α-dihydrotetrabenazine, Male 2, oral 1.50 mg/kg (freebase equivalent)"}, "[7]": {"conditions": "male, Beagle (HsdRcc:DOBE), dog, plasma, po, 1.5 mg/kg, Plasma concentration of (+)-α-dihydrotetrabenazine, Male 3, oral 1.50 mg/kg (freebase equivalent)"}, "[8]": {"conditions": "male, Beagle (HsdRcc:DOBE), dog, plasma, po, 1.5 mg/kg, Plasma concentration of (+)-α-dihydrotetrabenazine, Mean of 3 dogs, oral 1.50 mg/kg (freebase equivalent)"}, "[9]": {"conditions": "male, Beagle (HsdRcc:DOBE), dog, plasma, po, 1.5 mg/kg, Plasma concentration of (+)-α-dihydrotetrabenazine, Mean of 3 dogs, oral 1.50 mg/kg (freebase equivalent), BLQ treated as zero"}},
  "data": [
    {"smiles": "COc1cc2c(cc1OC)[C@H]1C[C@@H](O)[C@H](CC(C)C)CN1CC2.O=C(O)CCC(=O)O", "note": "[(+)-α-dihydrotetrabenazine succinate]", "values": [
      {"measurement": "solubility thermodynamic at 7 days", "setting": "[1]", "value": "> 350", "unit": "mg/mL"},
      {"measurement": "time post dose at which Cmax was observed", "setting": "[2]; dog, in vivo, po, 1.5 mg/kg", "value": 0.33, "unit": "h"},
      {"measurement": "mean exposure", "setting": "[2]; male Beagle dogs, oral 1.50 mg/kg (freebase equivalent)", "value": 71.8782, "unit": "ng·mL·h"},
      {"measurement": "concentration at 0.25 h", "setting": "[2]; [5]", "value": 66.7, "unit": "ng/mL"},
      {"measurement": "concentration at 0.5 h", "setting": "[2]; [5]", "value": 47.6, "unit": "ng/mL"},
      {"measurement": "concentration at 1 h", "setting": "[2]; [5]", "value": 23.4, "unit": "ng/mL"},
      {"measurement": "concentration at 2 h", "setting": "[2]; [5]", "value": 7.04, "unit": "ng/mL"},
      {"measurement": "concentration at 3 h", "setting": "[2]; [5]", "value": 2.48, "unit": "ng/mL"},
      {"measurement": "concentration at 4 h", "setting": "[2]; [5]", "value": 1.03, "unit": "ng/mL"},
      {"measurement": "concentration at 6 h", "setting": "[2]; [5]", "value": 0.304, "unit": "ng/mL"},
      {"measurement": "concentration at 0.5 h", "setting": "[2]; [6]", "value": 32.4, "unit": "ng/mL"},
      {"measurement": "concentration at 1 h", "setting": "[2]; [6]", "value": 14.8, "unit": "ng/mL"},
      {"measurement": "concentration at 2 h", "setting": "[2]; [6]", "value": 3.65, "unit": "ng/mL"},
      {"measurement": "concentration at 3 h", "setting": "[2]; [6]", "value": 1.23, "unit": "ng/mL"},
      {"measurement": "concentration at 4 h", "setting": "[2]; [6]", "value": 0.531, "unit": "ng/mL"},
      {"measurement": "concentration at 0.5 h", "setting": "[2]; [7]", "value": 83.1, "unit": "ng/mL"},
      {"measurement": "concentration at 1 h", "setting": "[2]; [7]", "value": 49.2, "unit": "ng/mL"},
      {"measurement": "concentration at 2 h", "setting": "[2]; [7]", "value": 21.7, "unit": "ng/mL"},
      {"measurement": "concentration at 3 h", "setting": "[2]; [7]", "value": 10.6, "unit": "ng/mL"},
      {"measurement": "concentration at 4 h", "setting": "[2]; [7]", "value": 6.21, "unit": "ng/mL"},
      {"measurement": "concentration at 6 h", "setting": "[2]; [7]", "value": 1.68, "unit": "ng/mL"},
      {"measurement": "concentration at 12 h", "setting": "[2]; [7]", "value": 0.212, "unit": "ng/mL"},
      {"measurement": "concentration at 0 h", "setting": "[2]; male, Beagle (HsdRcc:DOBE), dog, plasma, po, 1.5 mg/kg, Plasma concentration of (+)-α-dihydrotetrabenazine, Mean of 3 dogs, oral 1.50 mg/kg (freebase equivalent), 0 h (pre-dose), BLQ treated as zero", "value": 0, "unit": "ng/mL"},
      {"measurement": "concentration at 0.25 h", "setting": "[2]; [8]", "value": 46, "unit": "ng/mL"},
      {"measurement": "concentration at 0.5 h", "setting": "[2]; [8]", "value": 54.4, "unit": "ng/mL"},
      {"measurement": "concentration at 1 h", "setting": "[2]; [8]", "value": 29.1, "unit": "ng/mL"},
      {"measurement": "concentration at 2 h", "setting": "[2]; [8]", "value": 10.8, "unit": "ng/mL"},
      {"measurement": "concentration at 3 h", "setting": "[2]; [8]", "value": 4.77, "unit": "ng/mL"},
      {"measurement": "concentration at 4 h", "setting": "[2]; [8]", "value": 2.59, "unit": "ng/mL"},
      {"measurement": "concentration at 6 h", "setting": "[2]; [9]", "value": 0.66, "unit": "ng/mL"},
      {"measurement": "concentration at 12 h", "setting": "[2]; [9]", "value": 0.07, "unit": "ng/mL"},
      {"measurement": "concentration at 24 h", "setting": "[2]; male, Beagle (HsdRcc:DOBE), dog, plasma, po, 1.5 mg/kg, Plasma concentration of (+)-α-dihydrotetrabenazine, Mean of 3 dogs, oral 1.50 mg/kg (freebase equivalent), 24 h, BLQ treated as zero", "value": 0, "unit": "ng/mL"},
      {"measurement": "Cmax", "setting": "[2]; male, Beagle, dog, in vivo, po, 1.5 mg/kg", "value": 64.3, "unit": "ng/mL"},
      {"measurement": "polymorphism", "setting": "[3]", "value": "no evidence of polymorphism"},
      {"measurement": "moisture uptake", "setting": "[4]; 60% relative humidity", "value": 0.6, "unit": "weight %"},
      {"measurement": "moisture uptake", "setting": "[4]; 90% relative humidity", "value": 1.3, "unit": "weight %"},
      {"measurement": "XRPD pattern after moisture sorption studies", "setting": "[4]; dried at 60° C. and 0% relative humidity", "value": "No change"},
      {"measurement": "hygroscopicity", "setting": "[4]; gravimetric moisture-sorption", "value": "slightly hygroscopic"}
    ]}
  ]
}
